# In US20150291598A1 (NOVARTIS AG, priority 2012, published 2015):
# Read-outs that look alike come from different tables or passages of the source.
# Key:
# [1] = system: P. falciparum (NF54 or 3D7 strain); test: Assay for P. falciparum proliferation in infected human blood cells (SYBR Green); type: cell-based, Plasmodium falciparum; details: Plasmodium falciparum, Erythrocyte
# Method in brief: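 Infected erythrocytes (NF54 or 3D7; final 2.5% hematocrit, 0.3% parasitemia) were incubated with compounds for 72 h at 37 °C in low oxygen (3% O2, 4% CO2, 93% N2).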
# P. yoelii Sporozoite = test: P. yoelii sporozoite invasion assay in HepG2-A16-CD81EGFP liver cells (immunofluorescence quantification of EEFs); type: cell-based; details: Plasmodium yoelii
# Source text: Compounds of the invention can be assayed to measure their capacity to inhibit proliferation of parasites in liver cells. The proliferation is quantified by determine the number of infected cells by immunofluorescence.
# Due to the difficulty of successfully infecting immortalized human liver cell lines with the human malaria sporozoites (liver-stage parasite), rodent malaria sporozoites from Plasmodium yoelii (17XNL) and P. berghei (ANKA) are the preferred surrogate. Sporozoites are obtained from Anopheles stephensi mosquitoes supplied by the New York University Insectary, which ships the malaria-infected mosquitoes 10-13 days following the ingestion of an infective blood meal.
# A transgenic HepG2 cell line expressing the tetraspanin CD81 receptor (HepG2-A16-CD81^EGFP) is used to increase the infectivity rate of rodent-malaria sporozoites into human cells. HepG2-A16-CD81^EGFP cells are stably transformed to express a GFP-CD81 fusion protein. A continuous in vitro culture of this line was maintained at 37° C. in 4% CO2 in complete media (CM) which contains: DMEM (Invitrogen, Carlsbad, USA) supplemented with 10% FCS, 0.29 mg/ml glutamine, 100 units penicillin and 100 μg/ml streptomycin (SigmaAldrich, USA).
# P. yoelii Sporozoite Invasion Assay
# These plates are incubated at 37° C. with 4% CO2 overnight. Two hours prior to infection, 50 nl of compound dissolved in DMSO (0.1% final DMSO concentration per well) were transferred with a PinTool (GNF Systems) into the assay plates (10 μM final concentration). A 1:3 serial dilution of atovaquone (10 μM at the highest final concentration) and wells treated only with DMSO were used as positive and negative controls, respectively.
# Freshly dissected salivary glands from infected mosquitoes were homogenized in a glass tissue grinder, filtered twice through Nylon cell strainers (40 μm pore size, BD Falcon) and counted using a hemocytometer. The assay plate with HepG2-A16-CD81^EGFP cells and compound were then infected with 8×10^3 sporozoites per well and the plates are subjected to a centrifugal force of 650×g to pellet the sporozoites onto the liver cell monolayer. The assay plate is incubated at 37° C. for 2 hours to permit sporozoite invasion, then the media is aspirated from the media plate, and replaced with 50 μl CM (containing a 5× concentration of penicillin/streptomycin; 500 units penicillin and 0.5 mg streptomycin per ml) per well. 50 nl of compound is re-introduced by PinTool and the assay plate incubated for 48 hours at 37° C. before quantification of infected cells by immunofluorescence.
# Atovaquone and uninfected wells were used as controls on each plate. Two replicate plates are tested for each assay.
# Stained EEFs were then quantified using the Opera Confocal High Content Screening System (PerkinElmer, Waltham, USA). Images were collected using a 20× objective lens (20×/0.45 NA, LWD Plan Fluor, Olympus) at a binning of 2, using a 365 nm Xeon arc lamp illumination to detect the Hoechst-labeled nuclei and 635 nm laser line to excite DyLight649-labeled parasites. The image resolution yielded was approximately 0.66 μm/pixel (˜0.43 μm 2/pixel). All images were analyzed using a custom Acapella™ (PerkinElmer) script parametrized for this assay. In brief, images from fields inside the well were first discarded as out-of focus when the intensity in the nuclear channel was too low. Then, HepG2-A16-CD81^EGFP cells were counted by detecting the nuclei labeled with Hoechst using the nuclei detection libraries available with Acapella™. Parasites were later segmented using the αPyHSP70 immuno-labeling signal, using a custom script library. Once the objects were segmented from the picture, morphological-based (e.g. size, roundness, etc) and intensity-based features were measured for each object detected in the image (i.e. nuclei and parasites). Infection ratio was set as the ratio between parasite number and number of nuclei counted in images considered as “in-focus”.
# [2] = 72 h, NF54 or 3D7 infected human erythrocytes, 72 hours, read-out: EC50 (nM), inhibitory efficacy in delaying P. falciparum proliferation in infected human blood cells
# [3] = HepG2-A16-CD81EGFP cells, 48 hours, read-out: EC50 (nM), inhibitory efficacy in delaying the proliferation of P. yoelii sporozoite in infected liver cells
# [4] = infected human red blood cells, read-out: EC50, P. falciparum Proliferation Assay
# [5] = read-out: EC50, P. yoelii Sporozoite Invasion Assay
# [6] = 72 h, read-out: EC50 (nM), inhibitory efficacy in delaying P. falciparum proliferation in infected human blood cells
Structure (SMILES),"EC50 [1, 2] [nM]",EC50 (P. yoelii Sporozoite; [3]) [nM],"EC50 [1, 4] [nM]",EC50 (P. yoelii Sporozoite; [5]) [nM],"EC50 [1, 6] [nM]","EC50 (P. yoelii Sporozoite; 48 h, read-out: EC50 (nM), inhibitory efficacy in delaying the proliferation of P. yoelii sporozoite in infected liver cells) [nM]"
"CC(=O)Nc1ccc(-c2cnc3cnc(C(=O)N(C)c4ccc(C#N)cc4)cn23)cn1 [Compound 236, N-(4-cyanophenyl)-3-(6-acetamidopyridin-3-yl)-N-methylimidazo[1,2-a]pyrazine-6-carboxamide]",127,189,,,,
"Cc1ccc(N(C)C(=O)c2cn3c(-c4ccc(C(F)(F)F)cc4)cnc3cn2)nc1 [Compound 491, N-methyl-N-(5-methylpyridin-2-yl)-3-[4-(trifluoromethyl)phenyl]imidazo[1,2-a]pyrazine-6-carboxamide]",199,1110,,,,
"CN(C(=O)c1cn2c(-c3ccc(C(N)=O)cc3)cnc2cn1)c1ccc(Cl)cc1 [Compound 486, 3-(4-carbamoylphenyl)-N-(4-chlorophenyl)-N-methylimidazo[1,2-a]pyrazine-6-carboxamide]",42,120,< 50,,,
"CN(Cc1cn2c(-c3ccc(C(N)=O)cc3)cnc2cn1)c1ccc(F)cc1 [Compound 222, 4-(6-{[(4-fluorophenyl)(methyl)amino]methyl}imidazo[1,2-a]pyrazin-3-yl)benzamide]",30,7,< 50,< 50,,
"CN(Cc1cn2c(-c3ccc(C(F)(F)F)cc3)cnc2cn1)c1ccc(C#N)cc1 [Compound 213, 4-[methyl({3-[4-(trifluoromethyl)phenyl]imidazo[1,2-a]pyrazin-6-yl}methyl)amino]benzonitrile]",41,14,,< 50,,
"CN(C(=O)c1cn2c(-c3ccc(C(N)=O)cc3)cnc2cn1)c1ccc(F)cc1 [Compound 11, 3-(4-carbamoylphenyl)-N-(4-fluorophenyl)-N-methylimidazo[1,2-a]pyrazine-6-carboxamide]",74,56,,,,
"CNC(=O)c1ccc(-c2cnc3cnc(C(=O)N(C)c4ccc(C#N)cc4)cn23)cc1 [Compound 38, N-(4-cyanophenyl)-N-methyl-3-[4-(methylcarbamoyl)phenyl]imidazo[1,2-a]pyrazine-6-carboxamide]",131,290,,,,
"COC(=O)Nc1ccc(-c2cnc3cnc(C(=O)N(C)c4ccc(C#N)cc4)cn23)cc1 [Compound 482, methyl N-(4-{6-[(4-cyanophenyl)(methyl)carbamoyl]imidazo[1,2-a]pyrazin-3-yl}phenyl)carbamate]",37,64,,,,
"CN(Cc1cn2c(-c3ccc(C(N)=O)cc3)cnc2cn1)c1ccc(Cl)cc1 [Compound 477, 4-(6-{[(4-chlorophenyl)(methyl)amino]methyl}imidazo[1,2-a]pyrazin-3-yl)benzamide]",9,11,< 50,< 50,,
"CN(C(=O)c1cn2c(-c3ccc4c(cnn4C)c3)cnc2cn1)c1ccc(C#N)cc1 [Compound 487, N-(4-cyanophenyl)-N-methyl-3-(1-methyl-1H-indazol-5-yl)imidazo[1,2-a]pyrazine-6-carboxamide]",96,2940,,,,
"CN(Cc1cn2c(-c3ccc(C(N)=O)cc3)cnc2cn1)c1ccc(C#N)cc1 [Compound 223, 4-(6-{[(4-cyanophenyl)(methyl)amino]methyl}imidazo[1,2-a]pyrazin-3-yl)benzamide]",25,11,,< 50,,
"CN(C(=O)c1cn2c(-c3ccc(C(F)(F)F)cc3)cnc2cn1)c1ccc(C#N)cc1 [Compound 76, N-(4-cyanophenyl)-N-methyl-3-[4-(trifluoromethyl)phenyl]imidazo[1,2-a]pyrazine-6-carboxamide]",,263,,,35,
"CNC(=O)c1ccc(-c2cnc3cnc(C(=O)N(C)c4ccc(Cl)cc4)cn23)cc1 [Compound 228, N-(4-chlorophenyl)-N-methyl-3-[4-(methylcarbamoyl)phenyl]imidazo[1,2-a]pyrazine-6-carboxamide]",,,,< 50,58,32
